Measurements reported in ChEMBL document CHEMBL1275282, “Synthesis, characterization, oxidative degradation, antibacterial activity and acetylcholinesterase/butyrylcholinesterase inhibitory effects of some new phosphorus(V) hydrazides” (Eur J Med Chem, 2010).

Target: Cholinesterases; ACHE & BCHE (Homo sapiens) (UniProt P06276+P22303)
Test: Selectivity ratio of IC50 for human BChE over IC50 for human AChE by Ellman method

Sequence of Cholinesterases; ACHE & BCHE (Homo sapiens) (P06276 whole entry, looked up): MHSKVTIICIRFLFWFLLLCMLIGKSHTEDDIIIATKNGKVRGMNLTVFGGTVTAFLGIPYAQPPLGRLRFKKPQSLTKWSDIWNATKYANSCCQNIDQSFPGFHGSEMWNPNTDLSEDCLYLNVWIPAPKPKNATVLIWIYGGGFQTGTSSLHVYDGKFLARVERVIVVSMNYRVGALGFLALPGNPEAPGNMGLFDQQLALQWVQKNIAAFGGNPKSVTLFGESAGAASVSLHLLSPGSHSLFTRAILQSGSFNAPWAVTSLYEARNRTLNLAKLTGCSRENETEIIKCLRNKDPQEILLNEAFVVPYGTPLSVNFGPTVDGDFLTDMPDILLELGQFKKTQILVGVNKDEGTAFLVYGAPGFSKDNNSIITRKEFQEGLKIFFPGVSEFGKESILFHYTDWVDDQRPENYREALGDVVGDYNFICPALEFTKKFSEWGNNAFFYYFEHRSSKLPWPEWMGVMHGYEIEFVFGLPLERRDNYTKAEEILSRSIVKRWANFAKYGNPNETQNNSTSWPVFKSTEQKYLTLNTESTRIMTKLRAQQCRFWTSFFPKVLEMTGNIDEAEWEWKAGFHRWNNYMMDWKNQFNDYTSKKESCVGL
Sequence of Cholinesterases; ACHE & BCHE (Homo sapiens) (P22303 whole entry, looked up): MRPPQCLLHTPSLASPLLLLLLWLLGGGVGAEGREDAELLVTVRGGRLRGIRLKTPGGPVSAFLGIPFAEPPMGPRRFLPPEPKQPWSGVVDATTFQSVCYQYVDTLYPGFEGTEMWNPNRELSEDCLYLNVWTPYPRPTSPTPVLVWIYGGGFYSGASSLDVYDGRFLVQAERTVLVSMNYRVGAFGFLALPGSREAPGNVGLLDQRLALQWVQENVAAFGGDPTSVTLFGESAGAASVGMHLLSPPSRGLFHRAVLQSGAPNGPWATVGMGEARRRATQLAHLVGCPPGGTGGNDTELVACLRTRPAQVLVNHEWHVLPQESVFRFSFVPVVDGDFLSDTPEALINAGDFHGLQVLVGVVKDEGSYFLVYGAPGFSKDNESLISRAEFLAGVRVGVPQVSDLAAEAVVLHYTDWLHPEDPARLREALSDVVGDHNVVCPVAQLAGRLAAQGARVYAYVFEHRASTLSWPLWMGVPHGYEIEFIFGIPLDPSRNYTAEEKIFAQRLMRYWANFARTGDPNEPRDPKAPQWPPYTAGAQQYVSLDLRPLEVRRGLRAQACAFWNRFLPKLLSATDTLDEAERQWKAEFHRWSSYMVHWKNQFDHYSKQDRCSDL

O=P(O)(NN1CCCCC1)Oc1ccccc1
Ratio IC50: 4
